# Measured values: the supplement of paper PMC10307832
# What was measured:
# Assay in all cases: relative viability (nuclei count vs DMSO), 5 days (fraction); higher = more cells survive
# [1] = compound: C1CSC2=C(C(=O)N1)SC3=C2C=C(C=C3)O [kb NB 142-70] + Nc1nc2[nH]cc(CCc3ccc(C(=O)N[C@@H](CCC(=O)O)C(=O)O)cc3)c2c(=O)[nH]1 [Pemetrexed] (partner 0.2 µM)
# Summary of the method: (§1)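 Nuclei were stained with Hoechst during a one-step fixation (final 0.05% Triton X-100, 1% formaldehyde, 1 ug/ml Hoechst) carried out 5 days after dosing, then counted on 4× images. The cells, lung cancer lines in 1536-well plates, had been dosed by pin tool the day after seeding with one drug alone or a fixed anchor-drug dose plus five library-drug doses (not always all listed) in √10 steps. Relative viability is the nuclei count in treated wells divided by that in vehicle wells, and each value is the median of duplicate plates.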
# [2] = compound: NCC(=O)Nc1ccc(-n2nc(C(F)(F)F)cc2-c2ccc3c(ccc4ccccc43)c2)cc1 + CC(C)C[C@H](NC(=O)[C@H](Cc1ccccc1)NC(=O)c1cnccn1)B(O)O [Bortezomib] (partner 0.002 µM)
# Summary of the method: as §1
# kb NB 142-70 + Alpelisib = compound: C1CSC2=C(C(=O)N1)SC3=C2C=C(C=C3)O [kb NB 142-70] + Cc1nc(NC(=O)N2CCC[C@H]2C(N)=O)sc1-c1ccnc(C(C)(C)C(F)(F)F)c1 [Alpelisib] (partner 2 µM)
# Summary of the method: as §1
# kb NB 142-70 + Olaparib = compound: C1CSC2=C(C(=O)N1)SC3=C2C=C(C=C3)O [kb NB 142-70] + O=C(c1cc(Cc2n[nH]c(=O)c3ccccc23)ccc1F)N1CCN(C(=O)C2CC2)CC1 [Olaparib] (partner 8 µM)
# Summary of the method: as §1
# [3] = compound: NCC(=O)Nc1ccc(-n2nc(C(F)(F)F)cc2-c2ccc3c(ccc4ccccc43)c2)cc1 + C[C@]1(O)C[C@@H](c2nc(-c3ccc4ccc(-c5ccccc5)nc4c3)c3c(N)nccn32)C1 [Linsitinib] (partner 1 µM)
# Summary of the method: as §1
Cell Line,relative viability ([1]; first compound 0.1 µM),relative viability ([1]; first compound 1 µM),relative viability ([1]; first compound 3.162 µM),relative viability ([2]; first compound 0.02 µM),relative viability ([2]; first compound 0.06325 µM),relative viability ([2]; first compound 0.2 µM),relative viability ([2]; first compound 0.6325 µM),relative viability ([2]; first compound 2 µM),relative viability (kb NB 142-70 + Alpelisib; first compound 0.1 µM),relative viability (kb NB 142-70 + Alpelisib; first compound 1 µM),relative viability (kb NB 142-70 + Alpelisib; first compound 3.162 µM),relative viability (kb NB 142-70 + Olaparib; first compound 0.1 µM),relative viability (kb NB 142-70 + Olaparib; first compound 1 µM),relative viability (kb NB 142-70 + Olaparib; first compound 3.162 µM),relative viability ([3]; first compound 0.02 µM),relative viability ([3]; first compound 0.06325 µM),relative viability ([3]; first compound 0.2 µM),relative viability ([3]; first compound 0.6325 µM),relative viability ([3]; first compound 2 µM)
NCI-H1792,0.862,0.828,1.13,1.02,0.974,0.932,0.946,0.966,0.778,0.732,0.891,0.406,0.547,0.619,0.507,0.647,0.549,0.625,0.552
LCLC-97TM1,0.174,0.186,0.182,0.814,0.75,0.35,0.538,0.539,0.236,0.245,0.181,0.404,0.371,0.198,0.146,0.185,,0.198,0.183
LCLC-103H,0.447,0.453,0.471,1.03,1,1.13,1.07,1.1,0.998,0.944,0.961,0.751,0.749,0.847,1.16,0.997,1.12,1.11,0.978
PC-3 [JPC-3],1.11,1,0.559,0.763,0.853,0.8,0.816,0.929,1.06,1.04,0.968,1.12,1.25,1.15,0.957,0.977,0.992,0.963,0.961
BEN,0.773,0.761,0.575,0.817,0.852,0.763,0.701,0.576,0.922,0.982,0.689,1.09,1.21,1.01,0.885,1.06,0.923,0.861,0.914
NCI-H1666,0.811,0.977,0.897,0.788,0.769,1.03,0.951,0.906,0.805,1.01,0.632,0.73,0.78,0.823,0.703,0.993,0.861,0.912,0.844
LC-2-ad,0.275,0.23,0.295,1.1,1.03,0.997,0.912,1.12,0.858,0.958,0.813,0.681,0.716,0.649,0.996,0.94,0.876,0.852,0.897
SK-LU-1,0.958,0.954,0.412,1.07,1.22,1.23,1.07,1.31,0.961,0.873,0.307,0.423,0.396,0.271,1.16,1.1,1.5,1.15,1.15
COR-L 105,1.14,1.08,0.925,0.73,0.917,0.744,0.703,1.03,1.11,0.989,1.03,0.82,0.637,0.726,0.918,0.943,0.98,1.02,1.15
NCI-H1975,0.259,0.309,0.239,0.37,0.414,0.44,0.345,0.426,0.665,0.604,0.344,0.81,0.883,0.35,0.927,0.92,0.973,0.983,0.921
NCI-H1993,0.562,0.597,0.554,1.1,1.28,1.08,1.15,1.21,0.761,0.654,0.555,1.04,0.911,1.04,0.81,0.767,0.718,0.843,0.724
RERF-LC-KJ,0.461,0.477,0.417,1.11,1.19,1.15,1.26,1.14,0.778,0.827,0.706,1.03,1.01,0.675,0.923,0.84,0.9,0.857,0.982
NCI-H23,0.621,0.594,0.367,0.908,1.11,1.1,1.02,1.12,0.553,0.586,0.315,0.314,0.318,0.241,0.484,0.582,0.662,0.476,0.552
HCC-366,0.182,0.214,0.34,1.17,1.03,1.04,1.02,1.01,0.425,0.333,0.296,0.371,0.509,0.443,0.784,0.645,0.431,0.557,0.675
EMC-BAC-2,0.438,0.483,0.451,1.02,1.19,1.1,1.07,1.1,0.74,0.754,0.572,0.531,0.505,0.384,0.86,0.848,0.853,0.81,0.821
NCI-H2405,1.11,0.995,0.523,0.924,1.04,0.999,0.961,0.987,0.743,0.802,0.723,0.824,0.895,0.723,0.91,1.01,0.923,0.921,0.971
EPLC-272H,0.433,0.386,0.176,0.806,0.873,0.868,0.943,1.14,0.906,0.899,0.509,0.761,0.481,0.121,1.38,1.06,1.18,1.22,1.18
